Activity calls are given as the source filed them. The calls are words filed in the database; no cut-off is given here.
Legend:
Assay type in all cases: cell-based
[1] = molecular target: Beta-2 adrenergic receptor (Rattus norvegicus) (UniProt P10608); assay: Activation of beta-2 adrenergic receptor in rat L6 cells assessed as enhancement of 2-deoxyglucose uptake at 10 uM preincubated for 4 hrs followed by 2-deoxyglucose addition measured after 20 mins by fluorescence assay relative to control
[2] = molecular target: Beta-2 adrenergic receptor (Rattus norvegicus) (UniProt P10608); assay: Activation of beta-2 adrenergic receptor in rat L6 cells assessed as enhancement of 2-deoxyglucose uptake preincubated for 4 hrs followed by 2-deoxyglucose addition measured after 20 mins by fluorescence assay
[3] = molecular target: Beta-2 adrenergic receptor (Rattus norvegicus) (UniProt P10608); assay: Activation of beta-2 adrenergic receptor in rat L6 cells assessed as enhancement of 2-deoxyglucose uptake at 10 uM preincubated for 4 hrs followed by 2-deoxyglucose addition measured after 20 mins by fluorescence assay in presence of PI3K inhibitor LY294002
[4] = molecular target: Beta-2 adrenergic receptor (Rattus norvegicus) (UniProt P10608); assay: Activation of beta-2 adrenergic receptor in rat L6 cells assessed as enhancement of 2-deoxyglucose uptake at 10 uM preincubated for 4 hrs followed by 2-deoxyglucose addition measured after 20 mins by fluorescence assay in presence of AMPK inhibitor dorsomorphin
[5] = molecular target: Beta-2 adrenergic receptor (Rattus norvegicus) (UniProt P10608); assay: Activation of beta-2 adrenergic receptor in rat L6 cells assessed as enhancement of 2-deoxyglucose uptake at 10 uM preincubated for 4 hrs followed by 2-deoxyglucose addition measured after 20 mins by fluorescence assay in presence of non-selective beta-adrenergic receptor antagonist propranolol
[6] = molecular target: Beta-2 adrenergic receptor (Rattus norvegicus) (UniProt P10608); assay: Activation of beta-2 adrenergic receptor in rat L6 cells assessed as enhancement of 2-deoxyglucose uptake at 10 uM preincubated for 4 hrs followed by 2-deoxyglucose addition measured after 20 mins by fluorescence assay in presence of beta-2 selective adrenergic receptor antagonist ICI118551

Chain of Beta-2 adrenergic receptor (Rattus norvegicus) (P10608 whole entry, looked up): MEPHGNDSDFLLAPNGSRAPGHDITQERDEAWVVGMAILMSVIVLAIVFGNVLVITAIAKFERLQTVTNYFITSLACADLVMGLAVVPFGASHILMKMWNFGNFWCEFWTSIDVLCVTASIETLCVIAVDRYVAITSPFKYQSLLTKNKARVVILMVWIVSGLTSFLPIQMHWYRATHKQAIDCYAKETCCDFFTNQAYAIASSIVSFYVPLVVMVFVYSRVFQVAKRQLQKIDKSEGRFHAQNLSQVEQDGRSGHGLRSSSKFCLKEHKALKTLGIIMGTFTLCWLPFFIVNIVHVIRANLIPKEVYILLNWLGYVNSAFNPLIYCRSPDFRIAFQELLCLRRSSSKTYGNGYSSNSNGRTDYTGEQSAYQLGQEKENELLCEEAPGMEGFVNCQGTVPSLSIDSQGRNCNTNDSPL

- fold change (FC) [1]: 2.1
- Activity [2]: Dose-dependent effect
- Activity [3]: Active
- Activity [4]: Active
- Activity [5]: inactive
- Activity [6]: inactive
SMILES: OC[C@H]1O[C@@H](Oc2ccc(C[C@@H]3NCCc4cc(O)c(O)cc43)cc2)[C@H](O)[C@@H](O)[C@@H]1O

— ChEMBL document CHEMBL3585333, “Higenamine 4'-O-β-d-glucoside in the lotus plumule induces glucose uptake of L6 cells through β2-adrenergic receptor” (Bioorg Med Chem, 2015)
